Test results from PubChem BioAssay AID192 (DTP/NCI, 2004).
Inconclusive results and toxic doses are left out. The calls were made as follows: active = survival T/C of 150% or more; inactive = T/C below 125% in these data.

System: BDF1 mice, B16 melanoma ip, median survival T/C
Assay: NCI In Vivo Anticancer Drug Screen. Data for tumor model B16 Melanoma (intraperitoneal) in B6D2F1 (BDF1) mice
Conditions: endpoint: median survival time, higher = longer survival
In short: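 Values are ratios of treated (T) to vehicle-control (C) measurements of survival or tumor size in tumor-bearing mice.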

[1] = dose: 50.0 mg/kg/injection, schedule: Q01DX009 (ip), vehicle: saline with Tween-80
[2] = dose: 100.0 mg/kg/injection, schedule: Q01DX009 (ip), vehicle: saline with Tween-80
[3] = dose: 200.0 mg/kg/injection, schedule: Q01DX009 (ip), vehicle: saline with Tween-80
[4] = dose: 400.0 mg/kg/injection, schedule: Q01DX009 (ip), vehicle: saline with Tween-80
[5] = dose: 25.0 mg/kg/injection, schedule: Q01DX009 (ip), vehicle: Klucel (hydroxypropylcellulose) (HPC)
[6] = dose: 50.0 mg/kg/injection, schedule: Q01DX009 (ip), vehicle: Klucel (hydroxypropylcellulose) (HPC)
[7] = dose: 100.0 mg/kg/injection, schedule: Q01DX009 (ip), vehicle: Klucel (hydroxypropylcellulose) (HPC)
[8] = dose: 200.0 mg/kg/injection, schedule: Q01DX009 (ip), vehicle: Klucel (hydroxypropylcellulose) (HPC)
[9] = dose: 400.0 mg/kg/injection, schedule: Q01DX009 (ip), vehicle: Klucel (hydroxypropylcellulose) (HPC)
[10] = dose: 12.5 mg/kg/injection, schedule: Q01DX009 (ip), vehicle: saline
[11] = dose: 25.0 mg/kg/injection, schedule: Q01DX009 (ip), vehicle: saline

Measured: T/C

c1cc[c]([Sn]([S][Sn]([c]2ccccc2)([c]2ccccc2)[c]2ccccc2)([c]2ccccc2)[c]2ccccc2)cc1
inactive: [1] 99 % of control | [2] 93 % of control | [3] 92 % of control | [4] 86 % of control

Cc1cc(C)cc(OCC2CNC(=O)O2)c1 (configuration not stated)
inactive: [5] 94 % of control | [6] 108 % of control | [7] 91 % of control | [8] 94 % of control | [9] 100 % of control

O=C1C2C(C(=O)N1c1ccc(OCc3ccccc3)cc1)C1c3ccccc3C2C2CCCCN21 (configuration not stated)
inactive: dose: 3.13 mg/kg/injection, schedule: Q01DX009 (ip), vehicle: water 103 % of control | dose: 6.25 mg/kg/injection, schedule: Q01DX009 (ip), vehicle: water 98 % of control | dose: 12.5 mg/kg/injection, schedule: Q01DX009 (ip), vehicle: water 104 % of control

CCCCCCCCCCCC[S+](C)C
inactive: dose: 2.0 mg/kg/injection, schedule: Q01DX009 (ip), vehicle: saline sonified 89 % of control | dose: 4.0 mg/kg/injection, schedule: Q01DX009 (ip), vehicle: saline sonified 102 % of control | dose: 5.0 mg/kg/injection, schedule: Q01DX009 (ip), vehicle: Klucel (hydroxypropylcellulose) (HPC) 97 % of control | dose: 8.0 mg/kg/injection, schedule: Q01DX009 (ip), vehicle: saline sonified 107 % of control | dose: 10.0 mg/kg/injection, schedule: Q01DX009 (ip), vehicle: Klucel (hydroxypropylcellulose) (HPC) 100 % of control | dose: 16.0 mg/kg/injection, schedule: Q01DX009 (ip), vehicle: saline sonified 100 % of control | dose: 20.0 mg/kg/injection, schedule: Q01DX009 (ip), vehicle: Klucel (hydroxypropylcellulose) (HPC) 88 % of control

O=Cc1ccc(C=O)c(Cl)c1
inactive: [6] 97 % of control | [7] 109 % of control | [8] 107 % of control | [9] 104 % of control

C=C1C(=O)C23[C@H](O)C1CC[C@H]2[C@]12COC3(O)[C@@H](O)[C@@H]1C(C)(C)CC[C@@H]2O
inactive: dose: 1.56 mg/kg/injection, schedule: Q01DX009 (ip), vehicle: saline with Tween-80 105 % of control | dose: 3.12 mg/kg/injection, schedule: Q01DX009 (ip), vehicle: saline with Tween-80 93 % of control | dose: 6.25 mg/kg/injection, schedule: Q01DX009 (ip), vehicle: saline with Tween-80 96 % of control

COC1CC(OC2CCC3(C)C(CCC45OC46CCC(C4=CC(=O)OC4)C6(C)CCC35)C2)OC(C)C1O (configuration not stated)
inactive: dose: 1.2 mg/kg/injection, schedule: Q01DX009 (ip), vehicle: saline 98 % of control | dose: 1.8 mg/kg/injection, schedule: Q01DX009 (ip), vehicle: saline 101 % of control | dose: 2.75 mg/kg/injection, schedule: Q01DX009 (ip), vehicle: saline 87 % of control | [10] 96 % of control | [11] 89 % of control

O=C(NC(CSC(c1ccccc1)c1ccccc1)C(=O)O)OCc1ccccc1 (configuration not stated)
inactive: [5] 100 % of control | [6] 100 % of control

Cc1c(Cl)cccc1NS(=O)(=O)c1cccc([N+](=O)[O-])c1
inactive: [1] 100 % of control | [2] 91 % of control | [3] 98 % of control

CC(=O)CC(=O)Nc1cccc(C)c1
inactive: [7] 105 % of control | [8] 100 % of control | [9] 92 % of control

CN1CCC23c4ccccc4NC1C21CCN(C)C3Nc2ccccc21
inactive: dose: 1.87 mg/kg/injection, schedule: Q01DX009 (ip), vehicle: saline 107 % of control | dose: 3.75 mg/kg/injection, schedule: Q01DX009 (ip), vehicle: saline 107 % of control | dose: 7.5 mg/kg/injection, schedule: Q01DX009 (ip), vehicle: saline 109 % of control

CC(C(=O)N1c2ccccc2Sc2ccccc21)[N+]1(C)CCCC1 (configuration not stated)
inactive: dose: 3.12 mg/kg/injection, schedule: Q01DX009 (ip), vehicle: saline 93 % of control | dose: 6.25 mg/kg/injection, schedule: Q01DX009 (ip), vehicle: saline 93 % of control | [10] 95 % of control | [11] 91 % of control | dose: 50.0 mg/kg/injection, schedule: Q01DX009 (ip), vehicle: saline 100 % of control

CCOC(=O)NC(C(=O)OC)C(=O)OC
inactive: dose: 100.0 mg/kg/injection, schedule: Q04DX003 (ip), vehicle: Klucel (hydroxypropylcellulose) (HPC) 95 % of control | [8] 93 % of control | dose: 200.0 mg/kg/injection, schedule: Q04DX003 (ip), vehicle: Klucel (hydroxypropylcellulose) (HPC) 97 % of control | [9] 87 % of control | dose: 400.0 mg/kg/injection, schedule: Q04DX003 (ip), vehicle: Klucel (hydroxypropylcellulose) (HPC) 90 % of control

CC(C)CC(NC(=O)OCc1ccccc1)C(=O)NC(Cc1c[nH]c2ccccc12)C(=O)O (configuration not stated)
inactive: [1] 90 % of control | [2] 96 % of control | [3] 96 % of control | [4] 98 % of control

C=CCN1/C(=C/C=C\c2sc3ccccc3[n+]2CC=C)Sc2ccccc21
inactive: dose: 0.06 mg/kg/injection, schedule: Q01DX009 (ip), vehicle: saline with Tween-80 100 % of control | dose: 0.13 mg/kg/injection, schedule: Q01DX009 (ip), vehicle: saline with Tween-80 97 % of control | dose: 0.25 mg/kg/injection, schedule: Q01DX009 (ip), vehicle: saline with Tween-80 97 % of control | dose: 0.5 mg/kg/injection, schedule: Q01DX009 (ip), vehicle: saline with Tween-80 95 % of control

CCCCCCCC(=O)CCCCC
inactive: dose: 50.0 mg/kg/injection, schedule: Q01DX009 (ip), vehicle: other 90 % of control | dose: 100.0 mg/kg/injection, schedule: Q01DX009 (ip), vehicle: other 94 % of control | dose: 200.0 mg/kg/injection, schedule: Q01DX009 (ip), vehicle: other 100 % of control

Cc1cc(C)nc(NC(N)=NCCc2ccccc2)n1
inactive: dose: 12.5 mg/kg/injection, schedule: Q01DX009 (ip), vehicle: saline with Tween-80 104 % of control | dose: 25.0 mg/kg/injection, schedule: Q01DX009 (ip), vehicle: saline with Tween-80 88 % of control | [1] 97 % of control

CN(C)CC/C=C1\c2ccccc2Sc2ccc(Cl)cc21
inactive: dose: 0.12 mg/kg/injection, schedule: Q01DX009 (ip), vehicle: Klucel (hydroxypropylcellulose) (HPC) 95 % of control | dose: 0.24 mg/kg/injection, schedule: Q01DX009 (ip), vehicle: Klucel (hydroxypropylcellulose) (HPC) 86 % of control | dose: 0.48 mg/kg/injection, schedule: Q01DX009 (ip), vehicle: Klucel (hydroxypropylcellulose) (HPC) 88 % of control | dose: 1.95 mg/kg/injection, schedule: Q01DX009 (ip), vehicle: Klucel (hydroxypropylcellulose) (HPC) 86 % of control | dose: 7.0 micrograms/kg/injection, schedule: Q01DX009 (ip), vehicle: Klucel (hydroxypropylcellulose) (HPC) 105 % of control | dose: 15.0 micrograms/kg/injection, schedule: Q01DX009 (ip), vehicle: Klucel (hydroxypropylcellulose) (HPC) 107 % of control | dose: 30.0 micrograms/kg/injection, schedule: Q01DX009 (ip), vehicle: Klucel (hydroxypropylcellulose) (HPC) 105 % of control | dose: 60.0 micrograms/kg/injection, schedule: Q01DX009 (ip), vehicle: Klucel (hydroxypropylcellulose) (HPC) 105 % of control | dose: 120.0 micrograms/kg/injection, schedule: Q01DX009 (ip), vehicle: Klucel (hydroxypropylcellulose) (HPC) 98 % of control

O=C(NC(Cc1ccccc1)C(=O)CCl)OCc1ccccc1 (configuration not stated)
inactive: dose: 12.5 mg/kg/injection, schedule: Q01DX009 (ip), vehicle: Klucel (hydroxypropylcellulose) (HPC) 100 % of control | [5] 97 % of control
